From ChEMBL document CHEMBL2203176, “Structure-based bioisosterism design, synthesis and biological evaluation of novel 1,2,4-triazin-6-ylthioacetamides as potent HIV-1 NNRTIs” (Bioorg Med Chem Lett, 2012)

How the values were obtained:
[1] = tested on: Human immunodeficiency virus 1; test: Ratio of delavirdine EC50 to compound EC50 for HIV1 3B; format: functional
[2] = tested on: Human immunodeficiency virus 1; test: Ratio of nevirapine EC50 to compound EC50 for HIV1 3B; format: functional
[3] = tested on: Human immunodeficiency virus 2; test: Antiviral activity against HIV2 ROD infected in human MT4 cells assessed as inhibition of virus-induced cytopathicity by MTT assay; format: functional, organism-based; details: Human immunodeficiency virus 2, ISOLATE ROD
[4] = Selectivity index, ratio of CC50 for human MT4 cells to EC50 for HIV2 ROD; format: toxicity, cell-based; details: read-out: Ratio CC50/EC50
[5] = tested on: Human immunodeficiency virus 1; test: Antiviral activity against HIV1 3B infected in human MT4 cells assessed as inhibition of virus-induced cytopathicity by MTT assay; format: functional, organism-based; details: Human immunodeficiency virus 1, 3B
[6] = Selectivity index, ratio of CC50 for human MT4 cells to EC50 for HIV1 RES056 harboring reverse transcriptase K103N/Y181C mutant; format: toxicity, cell-based; details: read-out: Ratio CC50/EC50
[7] = Cytotoxicity against human MT4 cells by MTT assay; format: cell-based
[8] = tested on: Human immunodeficiency virus 1; test: Ratio of dideoxycytidine EC50 to compound EC50 for HIV1 3B; format: functional
[9] = Selectivity index, ratio of CC50 for human MT4 cells to EC50 for HIV1 3B; format: toxicity, cell-based; details: read-out: Ratio CC50/EC50
[10] = tested on: Human immunodeficiency virus 1; test: Antiviral activity against HIV1 RES056 harboring reverse transcriptase K103N/Y181C mutant infected in human MT4 cells assessed as inhibition of virus-induced cytopathicity by MTT assay; format: functional, organism-based; details: Human immunodeficiency virus 1, RES056, MT4
[11] = target: Human immunodeficiency virus type 1 reverse transcriptase (Human immunodeficiency virus 1, UniProt Q72547); test: Inhibition of HIV1 reverse transcriptase assessed as biotin-dUTP incorporation into enzyme using […] as template primer by colorimetric analysis

| Compound | Ratio EC50 [1] | Ratio EC50 [2] | EC50 [3] [µM] | selectivity ratio [4] | EC50 [5] [µM] | selectivity ratio [6] | CC50 [7] [µM] | Ratio EC50 [8] | selectivity ratio [9] | EC50 [10] [µM] | IC50 [11] [µM] |
| --- | --- | --- | --- | --- | --- | --- | --- | --- | --- | --- | --- |
| NS(=O)(=O)c1ccc(NC(=O)CSc2nncnc2-c2cccc3ccccc23)c(Br)c1 | 2 | 11 | > 23 | < 1 | 0.018 | 7 | 23 | 78 | 1290 | 3.3 |  |
| O=C(CSc1nncnc1-c1ccccc1Cl)Nc1cccnc1Cl |  |  | > 167 | < 1 | 0.074 | 7 | 167 |  | 2240 | 23 |  |
| O=C(CSc1nncnc1-c1ccccc1Cl)Nc1ccc(Cl)cc1Cl |  |  | > 51 | < 1 | 0.258 | < 1 | 51 |  | 190 | > 51 |  |
| Cc1ccccc1NC(=O)CSc1nncnc1-c1ccccc1Cl |  |  | > 142 | < 1 | 0.297 | < 1 | 142 |  | 465 | > 142 |  |
| COC(=O)c1ccc(NC(=O)CSc2nncnc2-c2ccccc2Cl)c(Br)c1 |  |  | > 59 | < 1 | 0.19 | < 1 | 59 |  | 311 | > 59 |  |
| CCOC(=O)c1ccc(NC(=O)CSc2nncnc2-c2ccccc2Cl)c(Br)c1 |  |  | > 69 | < 1 | 0.236 | < 1 | 69 |  | 302 | > 69 |  |
| O=C(CSc1nncnc1-c1ccccc1Cl)Nc1ccccn1 |  |  | > 123 | < 1 | 3.3 | < 1 | 172 |  | 51 | > 123 |  |
| COC(=O)c1sccc1NC(=O)CSc1nncnc1-c1ccccc1Cl |  |  | > 105 | < 1 | 2.9 | < 1 | 105 |  | 35 | > 105 |  |
| O=C(CSc1nncnc1-c1ccccc1Cl)N1CCc2ccccc2C1 |  |  | > 38 | > 1 | 0.731 | < 1 | ≥ 38 |  | ≥ 52 | ≥ 43 |  |
| O=C(CSc1nncnc1-c1cccc2ccccc12)Nc1ccccc1 |  |  | > 154 | < 1 | 1.53 | < 1 | 154 |  | 101 | > 154 |  |
| O=C(CSc1nncnc1-c1cccc2ccccc12)Nc1ccccc1Cl |  |  | > 63 | < 1 | 0.135 | < 1 | 63 |  | 470 | > 63 |  |
| O=C(CSc1nncnc1-c1cccc2ccccc12)Nc1ccccc1F |  |  | > 65 | < 1 | 0.359 | < 1 | 65 |  | 184 | > 65 |  |
| O=C(CSc1nncnc1-c1cccc2ccccc12)Nc1ccccc1Br |  |  | > 87 | < 1 | 0.173 | ≤ 2 | 87 |  | 503 | ≥ 43 |  |
| Cc1ccc(NC(=O)CSc2nncnc2-c2cccc3ccccc23)c(Br)c1 |  |  | > 166 | < 1 | 0.195 | 4 | 166 |  | 852 | 46 |  |
| Cc1ccc(NC(=O)CSc2nncnc2-c2cccc3ccccc23)c([N+](=O)[O-])c1 |  |  | > 147 | < 1 | 0.046 | 28 | 147 |  | 3170 | 5.2 |  |
| O=C(CSc1nncnc1-c1cccc2ccccc12)Nc1ccccc1[N+](=O)[O-] |  |  | > 142 | < 1 | 0.043 | 25 | 142 |  | 3260 | 5.6 |  |
| CC(=O)c1ccc(NC(=O)CSc2nncnc2-c2cccc3ccccc23)c(Br)c1 |  |  | > 133 | < 1 | 0.051 | 31 | 133 |  | 2680 | 4.3 |  |
| O=C(CSc1nncnc1-c1ccccc1Cl)Nc1ccccc1 |  |  | > 127 | < 1 | 0.42 | < 1 | 127 |  | 296 | > 127 |  |
| O=C(CSc1nncnc1-c1ccccc1Cl)Nc1ccccc1F |  |  | > 98 | < 1 | 0.21 | < 1 | 98 |  | 471 | > 98 |  |
| O=C(CSc1nncnc1-c1ccccc1Cl)Nc1ccccc1Br |  |  | > 73 | < 1 | 0.092 | ≤ 1 | 73 |  | 792 | ≥ 55 |  |
| Cc1ccc(NC(=O)CSc2nncnc2-c2ccccc2Cl)c(Br)c1 |  |  | > 45 | < 1 | 0.178 | ≤ 1 | 45 |  | 253 | ≥ 42 |  |
| Cc1ccc(NC(=O)CSc2nncnc2-c2ccccc2Cl)c([N+](=O)[O-])c1 |  |  | > 158 | < 1 | 0.048 | ≤ 1 | 158 |  | 3330 | ≥ 22 | 18 |
| O=C(CSc1nncnc1-c1ccccc1Cl)Nc1ccccc1[N+](=O)[O-] |  |  | > 63 | < 1 | 0.023 | ≤ 6 | 63 |  | 2160 | ≥ 11 | 6.5 |
| CC(=O)c1ccc(NC(=O)CSc2nncnc2-c2ccccc2Cl)c(Br)c1 |  |  | > 35 | < 1 | 0.086 | < 1 | 34 |  | 404 | > 34 |  |
